The text below walks through data of patent US8486462B2, “Glycoside having 4-methylergost-7-en-3-ol skeleton and hyperglycemia improving agent” (Morinaga Milk Industry Co., Ltd., priority 2004, dated 2013).

Like-named read-outs stand apart in the source and are kept apart here.

The subject of assay [1] is db/db mice. Briefly: Test Example 1: hyperglycemia improving effect, random and fasting blood glucose levels in type-II diabetes model mice. Format: in vivo. To be noted: oral 1 mL of 15 μg/mL once a day, vs negative sample. The protocol:
The final DMSO concentration was adjusted to 0.2%. The type-II diabetes model mice were orally administered 1 mL of the test sample solution once a day everyday with a sonde. […] Fasting blood glucose levels and random blood glucose levels were measured over time using Antisense II (Bayer-Sankyo Co., Ltd.). The fasting blood glucose levels were measured after 15 hours of fasting.

The test system of assay [2] is db/db mice. To be noted: for Hemoglobin A1c relative levels (%) 35th day from the administration: db/db mice, negative sample = 100.
Experimental: As type-II diabetes model mice, 6-week old male db/db mice (purchased from Clea Japan, Inc.) were used. These mice were divided into groups, each consisting of 7 animals. The test sample was dissolved in DMSO, and the concentration of 3-O-β-D-glucopyranosyl-4-methylergost-7-en-3-ol was adjusted to 1, 5 and 15 μg/mL with physiological saline. The final DMSO concentration was adjusted to 0.2%. The type-II diabetes model mice were orally administered with 1 mL of the test sample solution once day everyday with a sonde. […] On the 35th day from the start of the administration, hemoglobin A1c levels were measured by using DCA 2000 (Bayer-Sankyo Co., Ltd.).

Turning to `CC1C(O[C@@H]2O[C@H](CO)[C@@H](O)[C@H](O)[C@H]2O)CC[C@@]2(C)C1CC=C1[C@@H]3CC[C@H]([C@H](C)CC[C@H](C)C(C)C)[C@@]3(C)CC[C@@H]12` (stereo partly drawn) [compound 1, 3-O-β-D-glucopyranosyl-4-methylergost-7-en-3-ol], the “fasting blood glucose levels, changes over time” value in the assay on db/db mice [1] (after 15 hours of fasting) was “effect of suppressing the increases in blood glucose levels was clearly observed”. For the same molecule, the “random blood glucose levels, changes over time” value with db/db mice [1] is reported as “effect of suppressing the increases in blood glucose levels was clearly observed”. The “Hemoglobin A1c relative levels (%) 35th day from the administration” value is 98.6 ± 7.3% with db/db mice [2] (1 μg oral once a day), 89.6 ± 7.9 % with db/db mice [2] (5 μg oral once a day) and 73.5 ± 8.6 % in the assay with db/db mice [2] (15 μg oral once a day). Moreover, the “hemoglobin A1c levels in comparison with negative sample” value with db/db mice [2] (repetitive administration of 5 or 15 μg, 35th day) was “statistically significant decreases”.
